# Results as given in ChEMBL document CHEMBL1201862, “PubChem BioAssay data set” (2004).
#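 Each compound was tested at five concentrations against cells in 96-well plates for 48 hours. GI50: concentration for 50% inhibition of growth.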 Activity calls are given as the source filed them. Rule as the data show it: active = GI50 up to about 1.1 µM and inactive = higher.
# How the values were obtained:
# Assay in all cases: DTP human tumour cell line panel, 48 h
# UO-31 = test system: UO-31
# KM12 = test system: KM12
# CAKI-1 = test system: CAKI-1
# HCC 2998 = test system: HCC 2998
# SF-268 = test system: SF-268
# M14 = test system: M14
# ACHN = test system: ACHN
# OVCAR-4 = test system: OVCAR-4
# SK-OV-3 = test system: SK-OV-3
# NCI/ADR-RES = test system: NCI/ADR-RES
# SN12C = test system: SN12C
# RXF 393 = test system: RXF 393
# U-251 = test system: U-251
# HOP-92 = test system: HOP-92
# K562 = test system: K562
# HL-60 = test system: HL-60
# SNB-75 = test system: SNB-75
# NCI-H23 = test system: NCI-H23
# HCT-15 = test system: HCT-15
# MDA-MB-435 = test system: MDA-MB-435
SMILES,GI50 (UO-31),GI50 (KM12),GI50 (CAKI-1),GI50 (HCC 2998),GI50 (SF-268),GI50 (M14),GI50 (ACHN),GI50 (OVCAR-4),GI50 (SK-OV-3),GI50 (NCI/ADR-RES),GI50 (SN12C),GI50 (RXF 393),GI50 (U-251),GI50 (HOP-92),GI50 (K562),GI50 (HL-60),GI50 (SNB-75),GI50 (NCI-H23),GI50 (HCT-15),GI50 (MDA-MB-435)
CC1(C)OCC2OC(n3cnc4c(N)nc(Cl)nc43)C(OS(C)(=O)=O)C2O1 (stereo not drawn),> 100 µM (inactive),> 100 µM (inactive),> 100 µM (inactive),> 100 µM (inactive),> 100 µM (inactive),> 100 µM (inactive),> 100 µM (inactive),> 100 µM (inactive),> 100 µM (inactive),> 100 µM (inactive),> 100 µM (inactive),> 100 µM (inactive),> 100 µM (inactive),45.3 µM (inactive),> 100 µM (inactive),> 100 µM (inactive),> 100 µM (inactive),> 100 µM (inactive),> 100 µM,> 100 µM (inactive)
CC(C)(Cl)C(Cl)CC/C(CBr)=C(\Cl)CCl (stereo not drawn),6.53 µM (inactive),7.01 µM (inactive),5.09 µM (inactive),14.4 µM (inactive),7.8 µM (inactive),1.81 µM (inactive),14.9 µM (inactive),2.79 µM (inactive),6 µM (inactive),5.81 µM (inactive),3.52 µM (inactive),10.6 µM (inactive),4.24 µM (inactive),10.4 µM (inactive),0.678 µM (active),0.582 µM (active),4.45 µM (inactive),3.87 µM (inactive),1.97 µM,3.36 µM (inactive)
CCOC(=O)n1c(=O)nc2c3c(ncn21)Oc1c(c(-c2ccccc2)nn1-c1ccccc1)C3c1ccc(Cl)cc1 (stereo not drawn),1.49 µM (inactive),1.56 µM (inactive),1.61 µM (inactive),0.631 µM (active),1.58 µM (inactive),1.92 µM (inactive),1.71 µM (inactive),1.15 µM (inactive),2.86 µM (inactive),1.73 µM (inactive),1.82 µM (inactive),1.57 µM (inactive),1.69 µM (inactive),1.36 µM (inactive),1.08 µM (active),1.26 µM (inactive),1.91 µM (inactive),1.69 µM (inactive),1.18 µM,1.67 µM (inactive)
CCOC(=O)c1sc2[n+](c1C)C(=O)/C(=C/c1ccccc1Cl)S2,0.684 µM (active),0.425 µM (active),0.453 µM (active),1.7 µM (inactive),3.58 µM (inactive),2.2 µM (inactive),1.53 µM (inactive),33.3 µM (inactive),1.99 µM (inactive),0.342 µM (active),14.3 µM (inactive),15.3 µM (inactive),0.583 µM (active),5.9 µM (inactive),0.505 µM (active),4.12 µM (inactive),0.425 µM (active),1.63 µM (inactive),0.834 µM,0.281 µM (active)
CC(=O)CC(=O)Nn1c(-c2cccs2)nc2ccc(I)cc2c1=O,> 46.9 µM (inactive),> 54.7 µM (inactive),> 47.3 µM (inactive),> 39.8 µM (inactive),> 47.3 µM (inactive),> 66.8 µM (inactive),> 57 µM (inactive),> 100 µM (inactive),> 66.7 µM (inactive),> 46.5 µM (inactive),> 49.8 µM (inactive),> 68.9 µM (inactive),> 56 µM (inactive),> 50.1 µM (inactive),> 65.9 µM (inactive),> 66.5 µM (inactive),43.5 µM (inactive),> 49 µM (inactive),> 57.7 µM,> 60.7 µM (inactive)
O=C(CC(O)(C(F)(F)Cl)C(F)(F)Cl)CC(O)(C(F)(F)Cl)C(F)(F)Cl,0.929 µM (active),3.04 µM (inactive),2 µM (inactive),1.74 µM (inactive),1.5 µM (inactive),4.03 µM (inactive),0.927 µM (active),1.33 µM (inactive),1.87 µM (inactive),2.06 µM (inactive),4.65 µM (inactive),1.8 µM (inactive),1.65 µM (inactive),0.75 µM (active),0.843 µM (active),1.78 µM (inactive),1.76 µM (inactive),0.975 µM (active),1.07 µM,1.69 µM (inactive)
O=c1oc2ccc3ccccc3c2cc1-c1nc2ccccc2s1,> 100 µM (inactive),> 100 µM (inactive),> 100 µM (inactive),> 100 µM (inactive),> 100 µM (inactive),> 100 µM (inactive),> 100 µM (inactive),> 100 µM (inactive),> 100 µM (inactive),> 100 µM (inactive),> 100 µM (inactive),> 100 µM (inactive),> 100 µM (inactive),> 100 µM (inactive),> 20.6 µM (inactive),> 100 µM (inactive),> 100 µM (inactive),> 100 µM (inactive),> 100 µM,> 100 µM (inactive)
CC[C@]1(Cc2ccc(OC)c(OC)c2)C=[N+]([O-])O[C@H](OC2CCCC2(c2ccccc2)c2ccccc2)[C@@H]1OC(=O)C(C)(C)C (stereo partly drawn),1.77 µM (inactive),2.54 µM (inactive),4.19 µM (inactive),1.94 µM (inactive),3.15 µM (inactive),3.51 µM (inactive),2.33 µM (inactive),3.27 µM (inactive),15.2 µM (inactive),2.29 µM (inactive),3.07 µM (inactive),1.63 µM (inactive),5.62 µM (inactive),4.14 µM (inactive),3.61 µM (inactive),2.18 µM (inactive),3.63 µM (inactive),3.6 µM (inactive),3.08 µM,2.03 µM (inactive)
CC[n+]1c(/C=C/c2ccc(N(CCCl)CCCl)cc2)ccc2cc(NC(=O)/C=C/c3ccccc3)ccc21,16.6 µM (inactive),0.423 µM (active),2.13 µM (inactive),0.39 µM (active),0.393 µM (active),0.436 µM (active),0.807 µM (active),0.254 µM (active),0.578 µM (active),30.9 µM (inactive),0.261 µM (active),0.315 µM (active),0.132 µM (active),0.251 µM (active),0.134 µM (active),0.115 µM (active),0.131 µM (active),0.482 µM (active),14.2 µM,0.288 µM (active)
O=C1CCCCCC1CC(Sc1ccccc1)Sc1ccccc1 (stereo not drawn),88.5 µM (inactive),60.8 µM (inactive),> 100 µM (inactive),> 100 µM (inactive),> 100 µM (inactive),> 100 µM (inactive),> 100 µM (inactive),96.4 µM (inactive),> 100 µM (inactive),> 100 µM (inactive),–,> 100 µM (inactive),> 100 µM (inactive),> 100 µM (inactive),46.7 µM (inactive),21 µM (inactive),49.3 µM (inactive),75.3 µM (inactive),> 100 µM,> 100 µM (inactive)
c1cc2c3ccsc3c3sccc3c2s1,> 100 µM (inactive),> 100 µM (inactive),> 100 µM (inactive),36.4 µM (inactive),> 100 µM (inactive),> 100 µM (inactive),> 100 µM (inactive),> 100 µM (inactive),> 100 µM (inactive),> 100 µM (inactive),> 100 µM (inactive),> 100 µM (inactive),> 100 µM (inactive),> 100 µM (inactive),> 100 µM (inactive),46.9 µM (inactive),23.1 µM (inactive),47.5 µM (inactive),> 100 µM,> 100 µM (inactive)
Oc1ccc2c(c1)OCC1c3ccccc3OC21 (stereo not drawn),52.8 µM (inactive),45.4 µM (inactive),46.3 µM (inactive),27.8 µM (inactive),25.4 µM (inactive),74 µM (inactive),39.8 µM (inactive),60.8 µM (inactive),> 100 µM (inactive),37.8 µM (inactive),51.6 µM (inactive),94.2 µM (inactive),42.6 µM (inactive),> 100 µM (inactive),41.2 µM (inactive),28.8 µM (inactive),45.2 µM (inactive),44.9 µM (inactive),82.6 µM,33.8 µM (inactive)
C#CCNC(CCCNC(=N)N)C(=O)O (stereo not drawn),> 100 µM (inactive),> 100 µM (inactive),> 100 µM (inactive),> 100 µM (inactive),> 100 µM (inactive),> 100 µM (inactive),> 100 µM (inactive),> 100 µM (inactive),> 100 µM (inactive),> 100 µM (inactive),–,> 100 µM (inactive),> 100 µM (inactive),> 100 µM (inactive),> 100 µM (inactive),> 100 µM (inactive),> 100 µM (inactive),> 100 µM (inactive),> 100 µM,> 100 µM (inactive)
CC(=O)O[C@H]1C(=O)[C@@]2(C)[C@H]([C@H](OC(=O)c3ccccc3)[C@]3(O)C[C@H](OC(=O)[C@H](O)[C@@H](NC(=O)C(C)(C)C)c4ccccc4)C(C)=C1C3(C)C)[C@]1(OC(C)=O)CO[C@@H]1C[C@@H]2O,0.395 µM (active),0.0221 µM (active),1.56 µM (inactive),0.0702 µM (active),0.168 µM (active),0.0982 µM (active),3.32 µM (inactive),> 10 µM (inactive),0.0177 µM (active),> 10 µM (inactive),0.0807 µM (active),0.188 µM (active),0.137 µM (active),0.535 µM (active),0.0516 µM (active),0.018 µM (active),0.0555 µM (active),0.075 µM (active),1.41 µM,0.0158 µM (active)
